Assays:
[1] = test system: HCV Con1 subgenomic replicon (GS4.1 cells); experiment: HCV replicon assay (NS5A ELISA, 72 hrs); assay type: cell-based; conditions: Hepatitis C virus
Method in brief: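 GS4.1 cells (Huh-7 carrying the Con1 subgenomic replicon) were seeded at 7.5×10^3 cells/well and dosed 3 h later with ten 2-fold dilutions (top 75 μM) or a single 15 μM in 0.5% DMSO, then held 72 h at 37 °C. NS5A was quantified by cell ELISA (mAb A-236, OPD, A492), and EC50s came from four-parameter sigmoidal fits.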

[2] = test system: HCV genotype 1b replicon, NS5B S282T; experiment: Luciferase replicon transient transfection assay, genotype 1b NS5B S282T; assay type: cell-based, hepatitis C virus
Procedure: (§1) The luciferase replicon transient transfection assay measures the ability of a test compound to inhibit the replication of a transiently-transfected HCV luciferase-bearing wild-type or mutant replicon in cured human hepatoma cells (Huh7.5). The inhibition of HCV replication was measured by quantification of luciferase protein expression. This assay has been validated using a panel of genotype 1a and 1b replicons bearing mutations known to be associated with resistance to BMS-790052. Briefly, subconfluent Huh7.5 cells were electroporated with 10 μg of wild-type or mutant luciferase-bearing HCV replicon RNA. The cells were then seeded in 96-well opaque white plates at 3×10^4 cells/well in 150 μL/well and incubated for 4 hrs at 37° C./5% CO2. […] The plates were agitated on a rotating platform at room temperature for 3 min and read in a Victor^3V microplate reader (Perkin-Elmer) using a 700 nm cut-off filter with a 1 sec read time. EC50 values were calculated from dose response curves from the resulting best-fit equations determined by Microsoft Excel and XLfit 4.1 software.
(§2) To determine the replication capacity of each mutant relative to the wild-type parental replicon, transfected cells were plated on two plates and were not treated with compound. Luciferase activity was measured at time points of 4 hrs and 4 days after plating for each replicon. […]

[3] = test system: 1a-luc Q30R (HCV genotype 1a replicon); experiment: Luciferase replicon transient transfection assay, 1a-luc Q30R; assay type: cell-based, hepatitis C virus; conditions: for EC50: Hepatitis C virus, 96 h, Huh7.5 cells, 4 days
Procedure: (§3) The luciferase replicon transient transfection assay measures the ability of a test compound to inhibit the replication of a transiently-transfected HCV luciferase-bearing wild-type or mutant replicon in cured human hepatoma cells (Huh7.5). The inhibition of HCV replication was measured by quantification of luciferase protein expression. This assay has been validated using a panel of genotype 1a and 1b replicons bearing mutations known to be associated with resistance to BMS-790052. Briefly, subconfluent Huh7.5 cells were electroporated with 10 μg of wild-type or mutant luciferase-bearing HCV replicon RNA. The cells were then seeded in 96-well opaque white plates at 3×10^4 cells/well in 150 μL/well and incubated for 4 hrs at 37° C./5% CO2. Ten 1:5 serial dilutions of each test compound were made in media (DMEM containing glucose, L-glutamine and sodium pyruvate, 10% fetal bovine serum, 100 IU/mL penicillin, 100 μg/mL streptomycin, 2 mM GlutaMAX, and 1×MEM non-essential amino acids (Mediatech, Inc. and Invitrogen Corp.)) at concentrations that were 4× higher than the final concentrations to be tested and 50 μL/well was added to the transfected cells. Untreated, mock-transfected cells served as a negative control of luciferase expression. The plates were incubated at 37° C./5% CO2 for 4 days whereupon the media was removed and 50 μL of ONE-glo luciferase substrate (Promega) was added to each well. The plates were agitated on a rotating platform at room temperature for 3 min and read in a Victor^3V microplate reader (Perkin-Elmer) using a 700 nm cut-off filter with a 1 sec read time. EC50 values were calculated from dose response curves from the resulting best-fit equations determined by Microsoft Excel and XLfit 4.1 software.

[4] = test system: HCV genotype 1a replicon, NS3 T260A; experiment: Luciferase replicon transient transfection assay, genotype 1a NS3 T260A; assay type: cell-based, hepatitis C virus; conditions: for EC50: Hepatitis C virus, genotype 1a, HCV region NS3, mutation T260A
Procedure: as §3
(§4) To determine the replication capacity of each mutant relative to the wild-type parental replicon, transfected cells were plated on two plates and were not treated with compound. Luciferase activity was measured at time points of 4 hrs and 4 days after plating for each replicon. Replication capacity was calculated by dividing the day 4 CPS by the 4 hour CPS for each replicon and determining the percentage present for each mutant replicon relative to wild-type replicon values. The NS3, NS4B, and NS5B mutants were prepared and tested according to the methods described herein.

[5] = test system: 1a-luc L31M (HCV genotype 1a replicon); experiment: Luciferase replicon transient transfection assay, 1a-luc L31M; assay type: cell-based, hepatitis C virus; conditions: for EC50: Hepatitis C virus, 96 h, Huh7.5 cells, 4 days
Procedure: as §3

[6] = test system: 1a-luc L31F (HCV genotype 1a replicon); experiment: Luciferase replicon transient transfection assay, 1a-luc L31F; assay type: cell-based, hepatitis C virus; conditions: for EC50: Hepatitis C virus, 96 h, Huh7.5 cells, 4 days
Procedure: as §3

[7] = test system: 1a-luc P32L (HCV genotype 1a replicon); experiment: Luciferase replicon transient transfection assay, 1a-luc P32L; assay type: cell-based, hepatitis C virus; conditions: for EC50: Hepatitis C virus, 96 h, Huh7.5 cells, 4 days
Procedure: as §3

[8] = test system: ZS11-luc Y93N (HCV genotype 1b replicon); experiment: Luciferase replicon transient transfection assay, ZS11-luc Y93N; assay type: cell-based, hepatitis C virus; conditions: for EC50: Hepatitis C virus, 96 h, Huh7.5 cells, 4 days
Procedure: as §3

[9] = test system: HCV genotype 5a; experiment: Replicon assay, genotype 5a (method not described); assay type: cell-based; conditions: Hepatitis C virus
[10] = test system: HCV genotype 1a replicon, NS4B E15G; experiment: Luciferase replicon transient transfection assay, genotype 1a NS4B E15G; assay type: cell-based, hepatitis C virus; conditions: for EC50: Hepatitis C virus, HCV region NS4B, mutation E15G; for Ratio: NS4B E15G
Procedure: as §3, §4

[11] = test system: ZS11-luc replicon, NS3-A156T; experiment: Luciferase replicon transient transfection assay, NS3-A156T; assay type: cell-based, hepatitis C virus; conditions: for EC50: Hepatitis C virus
Procedure: as §3, §4

[12] = test system: ZS11-luc replicon, NS3-D168V; experiment: Luciferase replicon transient transfection assay, NS3-D168V; assay type: cell-based, hepatitis C virus; conditions: for EC50: Hepatitis C virus
Procedure: as §3, §4

[13] = test system: HCV genotype 1b replicon, NS5B C316Y; experiment: Luciferase replicon transient transfection assay, genotype 1b NS5B C316Y; assay type: cell-based, hepatitis C virus
Procedure: as §1, §2

Compound | EC50 [1] [nM] | Ratio [3] | EC50 [3] [nM] | EC50 [4] [nM] | Ratio [4] | Ratio [5] | EC50 [5] [nM] | Ratio [6] | EC50 [6] [nM] | Ratio [7] | EC50 [7] [nM] | Ratio [8] | EC50 [8] [nM] | EC50 [9] [nM] | EC50 [10] [nM] | Ratio [10] | EC50 [11] [nM] | Ratio [11] | EC50 [12] [nM] | Ratio [12] | other results
COC(=O)N[C@H](C(=O)N1CCC[C@H]1c1ncc(-c2ccc(-c3csc4c(-c5cnc([C@@H]6CCCN6C(=O)[C@@H](NC(=O)OC)C(C)C)[nH]5)csc34)cc2)[nH]1)C(C)C [Compound A15, [(S)-1-((S)-2-{4-[4-(6-{2-[(S)-1-((S)-2-methoxycarbonylamino-3-methyl-butyryl)-pyrrolidin-2-yl]-3H-imidazol-4-yl}-thieno[3,2-b]thiophen-3-yl)-phenyl]-1H-imidazol-2-yl}-pyrrolidine-1-carbonyl)-2-methyl-propyl]-carbamic acid methyl ester] | < 1 |  |  |  |  |  |  |  |  |  |  |  |  |  |  |  |  |  |  |  | 
COC(=O)N[C@H](C(=O)N1CCC[C@H]1c1nc2cc(-c3csc4c(-c5ccc(-c6cnc([C@@H]7CCCN7C(=O)[C@H](NC(=O)OC)c7ccccc7)[nH]6)cc5)csc34)ccc2[nH]1)C(C)C [Compound A169, [(S)-1-((S)-2-{6-[6-(4-{(S)-2-[1-((R)-2-methoxycarbonylamino-2-phenyl-acetyl)-pyrrolidin-2-yl]-3H-imidazol-4-yl}-phenyl)-thieno[3,2-b]thiophen-3-yl]-1H-benzoimidazol-2-yl}-pyrrolidine-1-carbonyl)-2-methyl-propyl]-carbamic acid methyl ester] |  | 10 | 0.02 | 0.003 | 1.57 | 311 | 0.7 | 68 | 0.15 | 173 | 0.4 | 146 | 0.4 | < 0.1 | 0.003 | 1.52 | 0.0018 | 1.09 | 0.0018 | 1.04 | EC50 ([2]; Hepatitis C virus, genotype 1b, NS5B mutation S282T (confers resistance to 2′-C-Methylnucleoside)): 0.0014 nM; Ratio ([2]; {}): 0.83; EC50 ([13]; Hepatitis C virus, genotype 1b, NS5B mutation C316Y (confers resistance to Benzofuran/Benzothiadiazine)): 0.0023 nM; Ratio ([13]; {}): 1.37
COC(=O)N[C@H](C(=O)N1CCC[C@H]1c1ncc(-c2ccc(-c3csc4c(-c5ccc6[nH]c([C@@H]7CCCN7C(=O)[C@H](NC(=O)OC)c7ccccc7)nc6c5)csc34)cc2)[nH]1)C(C)C [Compound A172, [(S)-1-((S)-2-{5-[4-(6-{(S)-2-[1-((R)-2-Methoxycarbonylamino-2-phenyl-acetyl)-pyrrolidin-2-yl]-3H-benzoimidazol-5-yl}-thieno[3,2-b]thiophen-3-yl)-phenyl]-1H-imidazol-2-yl}-pyrrolidine-1-carbonyl)-2-methyl-propyl]-carbamic acid methyl ester] |  | 10 | 0.04 | 0.006 | 1.61 | 378 | 2 | 67 | 0.3 | 173 | 0.7 | 65 | 0.3 | < 0.1 | 0.006 | 1.68 | 0.0026 | 1.14 | 0.0024 | 1.04 | 
COC(=O)N[C@H](C(=O)N1CCC[C@H]1c1ncc(-c2ccc(-c3csc4c(-c5cnc([C@@H]6CCCN6C(=O)[C@H](NC(=O)OC(C)(C)C)c6ccccc6)[nH]5)csc34)cc2)[nH]1)C(C)C [Compound A111, [(S)-1-((S)-2-{4-[4-(6-{(S)-2-[1-((R)-2-tert-butoxycarbonylamino-2-phenyl-acetyl)-pyrrolidin-2-yl]-3H-imidazol-4-yl}-thieno[3,2-b]thiophen-3-yl)-phenyl]-1H-imidazol-2-yl}-pyrrolidine-1-carbonyl)-2-methyl-propyl]-carbamic acid methyl ester] | < 1 |  |  |  |  |  |  |  |  |  |  |  |  |  |  |  |  |  |  |  | 

— patent US20120252721A1 (priority 2011, published 2012)
